In patent US7723320B2, “Use of estrogen compounds to increase libido in women” (Pantarhei Bioscience B.V., priority 2001, dated 2010):
Like-named read-outs stand apart in the source and are kept apart here.

Columns and labels:
postmenopausal women = experiment: Clinical study of libido in postmenopausal women; type: in vivo, human; conditions: 4 months
Description: In a baseline cycle, coitus frequency and sexual satisfaction (female orgasm) are recorded.
Each participant receives blinded medication in 2 differently labeled bottles, filled with tablets. One bottle comprises tablets that contain 2 mg estetrol, whilst the other bottle contains identical placebo tablets. The participants are allowed to choose from which bottle to take a tablet, but are instructed not to use more than 1 tablet per 24 hours and not more than 2 tablets a week. The total duration of the study is 4 months.

human ERβ = target: T1, human ERβ (Homo sapiens, UniProt Q92731); experiment: Competitive steroid binding assay, ERβ; conditions: read-out: Percent inhibition of specific binding in ERβ steroid binding assay; for inhibition at 0.03 µM: E4 0.03 μM; for inhibition at 0.1 µM: E4 0.1 μM; for inhibition at 0.3 µM: E4 0.3 μM; for inhibition at 1 µM: E4 1 μM
T1 construct: made in house; host or cells: Sf9 insect cells
T1 sequence (Q92731 whole entry): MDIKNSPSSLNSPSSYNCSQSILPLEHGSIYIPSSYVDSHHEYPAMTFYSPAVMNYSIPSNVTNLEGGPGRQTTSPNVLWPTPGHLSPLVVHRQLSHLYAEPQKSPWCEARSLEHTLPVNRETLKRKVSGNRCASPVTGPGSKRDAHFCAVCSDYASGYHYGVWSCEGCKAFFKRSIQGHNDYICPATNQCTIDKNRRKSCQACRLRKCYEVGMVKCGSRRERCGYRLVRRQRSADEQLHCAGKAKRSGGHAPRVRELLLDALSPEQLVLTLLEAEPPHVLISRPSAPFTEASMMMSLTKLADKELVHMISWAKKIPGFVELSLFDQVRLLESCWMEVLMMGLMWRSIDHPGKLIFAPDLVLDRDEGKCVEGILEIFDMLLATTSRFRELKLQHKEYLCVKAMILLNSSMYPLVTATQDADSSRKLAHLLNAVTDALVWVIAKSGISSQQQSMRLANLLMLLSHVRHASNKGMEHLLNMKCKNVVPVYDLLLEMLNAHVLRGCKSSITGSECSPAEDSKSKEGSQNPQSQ

human ERα = target: T2, human ERα (Homo sapiens, UniProt P03372); experiment: Competitive steroid binding assay, ERα; conditions: for inhibition at 0.003 µM: E4 3 nM; for inhibition at 0.01 µM: E4 10 nM; for inhibition at 0.03 µM: E4 0.03 μM; for inhibition at 0.1 µM: E4 0.1 μM; for inhibition at 0.3 µM: E4 0.3 μM
T2 sequence (P03372 1-595): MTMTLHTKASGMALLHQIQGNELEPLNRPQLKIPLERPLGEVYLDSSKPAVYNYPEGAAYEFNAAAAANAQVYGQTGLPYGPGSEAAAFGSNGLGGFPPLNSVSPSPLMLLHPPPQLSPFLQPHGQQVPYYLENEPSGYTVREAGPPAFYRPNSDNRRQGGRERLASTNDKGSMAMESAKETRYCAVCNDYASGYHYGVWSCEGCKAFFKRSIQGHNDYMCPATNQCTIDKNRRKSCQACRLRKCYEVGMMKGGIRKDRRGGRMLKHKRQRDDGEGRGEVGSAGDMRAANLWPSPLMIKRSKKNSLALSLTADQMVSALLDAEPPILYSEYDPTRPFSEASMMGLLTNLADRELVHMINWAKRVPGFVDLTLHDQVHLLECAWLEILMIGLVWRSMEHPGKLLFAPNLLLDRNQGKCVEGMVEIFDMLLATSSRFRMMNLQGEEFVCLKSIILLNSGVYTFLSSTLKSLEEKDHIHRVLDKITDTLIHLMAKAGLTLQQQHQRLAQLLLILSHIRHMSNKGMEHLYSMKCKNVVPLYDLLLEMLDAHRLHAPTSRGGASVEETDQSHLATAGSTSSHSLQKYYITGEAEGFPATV

[1] = Test 1, read-out: Percent inhibition of specific binding in ERα steroid binding assay
[2] = Test 2, read-out: Percent inhibition of specific binding in ERα steroid binding assay
[3] = Test 3, read-out: Percent inhibition of specific binding in ERα steroid binding assay

For `C[C@]12CC[C@@H]3c4ccc(O)cc4CC[C@H]3[C@@H]1[C@@H](O)[C@@H](O)[C@@H]2O` [E4, 1,3,5(10)-estratrien-3,15α,16α,17β-tetrol], the “use of estetrol containing tablets versus placebo tablets” value (postmenopausal women; blinded free choice between two bottles) was “significantly more”, the “libido and sexual enjoyment in comparison to baseline” value (postmenopausal women; oral 2 mg tablets on demand, postmenopausal women) was “improved libido and sexual enjoyment” and the undesirable side-effects (postmenopausal women; oral 2 mg tablets, max 2 tablets a week) was “no undesirable side-effects are reported”. For the same compound, the inhibition at 0.03 µM (human ERβ; Test 1) was 19%, the inhibition at 0.03 µM (human ERβ; Test 2) was 25% and the inhibition at 0.03 µM (human ERβ; Test 3) was 30%. It also gave an inhibition at 0.1 µM (human ERβ; Test 1) of 56%, an inhibition at 0.1 µM (human ERβ; Test 2) of 54% and an inhibition at 0.1 µM (human ERβ; Test 3) of 50%. The inhibition at 0.3 µM (human ERβ; Test 1) was 74%, the inhibition at 0.3 µM (human ERβ; Test 2) was 74% and the inhibition at 0.3 µM (human ERβ; Test 3) was 77%. It also gave an inhibition at 1 µM (human ERβ; Test 1) of 87%, an inhibition at 1 µM (human ERβ; Test 2) of 90% and an inhibition at 1 µM (human ERβ; Test 3) of 95%. It also gave an inhibition at 0.003 µM (human ERα; [1]) of 26%, an inhibition at 0.003 µM (human ERα; [2]) of 17% and an inhibition at 0.003 µM (human ERα; [3]) of 11%. For the same compound, the inhibition at 0.01 µM (human ERα; [1]) was 43%, the inhibition at 0.01 µM (human ERα; [2]) was 32% and the inhibition at 0.01 µM (human ERα; [3]) was 28%. It also gave an inhibition at 0.03 µM (human ERα; [1]) of 64%, an inhibition at 0.03 µM (human ERα; [2]) of 66% and an inhibition at 0.03 µM (human ERα; [3]) of 63%. For the same compound, the inhibition at 0.1 µM (human ERα; [1]) was 83%, the inhibition at 0.1 µM (human ERα; [2]) was 85% and the inhibition at 0.1 µM (human ERα; [3]) was 86%. For the same compound, the inhibition at 0.3 µM (human ERα; [1]) was 92%, the inhibition at 0.3 µM (human ERα; [2]) was 94% and the inhibition at 0.3 µM (human ERα; [3]) was 101%. The inhibition at 1 µM (human ERα; E4 1 μM, Test 1, read-out: Percent inhibition of specific binding in ERα steroid binding assay) was 98% and the “Relative ERα/ERβ preference” value (human ERα; from Ki values for ERα and ERβ) was 400%.
